Laboratory results taken from US9695155B2, “Herbicidal substituted pyrimidinyloxy benzene compounds” (E. I. DU PONT DE NEMOURS AND COMPANY, priority 2013, dated 2017).

Tests used:
[1] = system: fall panicum; experiment: Test E postemergence; format: in vivo, Panicum dichotomiflorum; conditions: Postemergence, scale 0 to 100
Summary of the method: (§1)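 Compound in a non-phytotoxic solvent mixture with surfactant was applied preemergence to seeds in silt loam soil, or postemergence to plants 2 to 18 cm tall grown in peat-based potting medium. Plants were kept in a greenhouse for 14 to 21 days, then rated visually against untreated controls on a 0 (no effect) to 100 (complete control) scale.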

[2] = system: large (Lg) crabgrass; experiment: Test E preemergence; format: in vivo, Digitaria sanguinalis; conditions: for Crabgrass, Large plant response rating: scale 0 to 100 (0 no effect, 100 complete control); for Plant response rating, Crabgrass, Large: scale 0 to 100, 0 no effect, 100 complete control
Summary of the method: as §1

[3] = system: soybean; experiment: Test E postemergence; format: in vivo, Glycine max; conditions: Postemergence, scale 0 to 100
Summary of the method: as §1

[4] = system: corn; experiment: Test E preemergence; format: in vivo, Zea mays; conditions: for Corn plant response rating: scale 0 to 100 (0 no effect, 100 complete control); for Plant response rating, Corn: scale 0 to 100, 0 no effect, 100 complete control
Summary of the method: as §1

[5] = system: wild poinsettia; experiment: Test E preemergence; format: in vivo, Euphorbia heterophylla; conditions: for Poinsettia, Wild plant response rating: scale 0 to 100 (0 no effect, 100 complete control); for Plant response rating, Poinsettia, Wild: scale 0 to 100, 0 no effect, 100 complete control
Summary of the method: as §1

[6] = system: goosegrass; experiment: Test E preemergence; format: in vivo, Eleusine indica; conditions: for Goosegrass plant response rating: scale 0 to 100 (0 no effect, 100 complete control); for Plant response rating, Goosegrass: scale 0 to 100, 0 no effect, 100 complete control
Summary of the method: as §1

[7] = system: palmer pigweed; experiment: Test E preemergence; format: in vivo, Amaranthus palmeri; conditions: for Pigweed, Palmer plant response rating: scale 0 to 100 (0 no effect, 100 complete control); for Plant response rating, Pigweed, Palmer: scale 0 to 100, 0 no effect, 100 complete control
Summary of the method: as §1

[8] = system: waterhemp; experiment: Test E preemergence; format: in vivo, Amaranthus rudis; conditions: for Waterhemp plant response rating: scale 0 to 100 (0 no effect, 100 complete control); for Plant response rating, Waterhemp: scale 0 to 100, 0 no effect, 100 complete control
Excerpt: (§2) Seeds of plant species selected from corn (Zea mays), soybean (Glycine max), velvetleaf (Abutilon theophrasti), lambsquarters (Chenopodium album), wild poinsettia (Euphorbia heterophylla), palmer pigweed (Amaranthus palmeri), waterhemp (common waterhemp, Amaranthus rudis), surinam grass (Brachiaria decumbens), large (Lg) crabgrass (Digitaria sanguinalis), Brazilian crabgrass (Digitaria horizontalis), fall panicum (Panicum dichotomiflorum), giant foxtail (Setaria faberii), green foxtail (Setaria viridis), goosegrass (Eleusine indica), johnsongrass (Sorghum halepense), ragweed (common ragweed, Ambrosia elatior), barnyardgrass (Echinochloa crus-galli), sandbur (southern sandbur, Cenchrus echinatus), arrowleaf sida (Sida rhombifolia), Italian ryegrass (Lolium multiflorum), dayflower (Virginia (VA) dayflower, Commelina virginica), field bindweed (Convolvulus arvensis), morningglory (Ipomoea coccinea), nightshade (eastern black nightshade, Solanum ptycanthum), kochia (Kochia scoparia), yellow nutsedge (Cyperus esculentus), cocklebur (common cocklebur, Xanthium strumarium), smartweed (ladysthumb smartweed, and hairy beggarticks (Bidens pilosa), were planted into a silt loam soil and treated preemergence with test chemicals formulated in a non-phytotoxic solvent mixture which included a surfactant.
(§3) At the same time, plants from these crop and weed species and also horseweed (Canada horseweed, Conyza canadensis), waterhemp_RES1, (ALS & Triazine resistant common waterhemp, Amaranthus rudis), and waterhemp_RES2, (ALS & HPPD resistant common waterhemp, Amaranthus rudis) were planted in pots containing Redi-Earth® planting medium (Scotts Company, 14111 Scottslawn Road, Marysville, Ohio 43041) comprising spaghnum peat moss, vermiculite, wetting agent and starter nutrients were treated with postemergence applications of test chemicals formulated in the same manner. Plants ranged in height from 2 to 18 cm for postemergence treatments (1- to 4-leaf stage). Treated plants and controls were maintained in a greenhouse for 14 to 21 days, after which time all species were compared to controls and visually evaluated. Plant response ratings, summarized in Table E, are based on a scale of 0 to 100 where 0 is no effect and 100 is complete control. A dash (-) response means no test result.

[9] = system: barnyardgrass; experiment: Test E postemergence; format: in vivo, Echinochloa crus-galli; conditions: Postemergence, scale 0 to 100
Summary of the method: as §1

[10] = system: yellow nutsedge; experiment: Test E preemergence; format: in vivo, Cyperus esculentus; conditions: for Nutsedge, Yellow plant response rating: scale 0 to 100 (0 no effect, 100 complete control); for Plant response rating, Nutsedge, Yellow: scale 0 to 100, 0 no effect, 100 complete control
Summary of the method: as §1

[11] = system: sandbur; experiment: Test E preemergence; format: in vivo, Cenchrus echinatus; conditions: for Sandbur plant response rating: scale 0 to 100 (0 no effect, 100 complete control); for Plant response rating, Sandbur: scale 0 to 100, 0 no effect, 100 complete control
Excerpt: as §2, §3

SMILES: N#Cc1cccc(Oc2ncc(Cl)cn2)c1-n1cc(Cl)cn1 [Compound 72]
- Plant response rating, Panicum, Fall ([1]; 62 g ai/ha): 10
- Plant response rating, Panicum, Fall ([1]; 125 g ai/ha): 10
- Crabgrass, Large plant response rating ([2]; 16 g ai/ha): 50
- Crabgrass, Large plant response rating ([2]; 31 g ai/ha): 80
- Crabgrass, Large plant response rating ([2]; 62 g ai/ha): 100
- Plant response rating, Crabgrass, Large ([2]; 125 g ai/ha): 100
- Plant response rating, Crabgrass, Large ([2]; 250 g ai/ha): 100
- Plant response rating, Soybean ([3]; 62 g ai/ha): 95
- Plant response rating, Soybean ([3]; 125 g ai/ha): 95
- Corn plant response rating ([4]; 16 g ai/ha): 0
- Corn plant response rating ([4]; 31 g ai/ha): 0
- Corn plant response rating ([4]; 62 g ai/ha): 0
- Plant response rating, Corn ([4]; 125 g ai/ha): 0
- Plant response rating, Corn ([4]; 250 g ai/ha): 0
- Poinsettia, Wild plant response rating ([5]; 16 g ai/ha): 15
- Poinsettia, Wild plant response rating ([5]; 31 g ai/ha): 5
- Poinsettia, Wild plant response rating ([5]; 62 g ai/ha): 15
- Plant response rating, Poinsettia, Wild ([5]; 125 g ai/ha): 70
- Plant response rating, Poinsettia, Wild ([5]; 250 g ai/ha): 70
- Goosegrass plant response rating ([6]; 16 g ai/ha): 0
- Goosegrass plant response rating ([6]; 31 g ai/ha): 60
- Goosegrass plant response rating ([6]; 62 g ai/ha): 80
- Plant response rating, Goosegrass ([6]; 125 g ai/ha): 98
- Plant response rating, Goosegrass ([6]; 250 g ai/ha): 100
- Pigweed, Palmer plant response rating ([7]; 16 g ai/ha): 95
- Pigweed, Palmer plant response rating ([7]; 31 g ai/ha): 100
- Pigweed, Palmer plant response rating ([7]; 62 g ai/ha): 100
- Plant response rating, Pigweed, Palmer ([7]; 125 g ai/ha): 100
- Plant response rating, Pigweed, Palmer ([7]; 250 g ai/ha): 100
- Waterhemp plant response rating ([8]; 16 g ai/ha): 95
- Waterhemp plant response rating ([8]; 31 g ai/ha): 98
- Waterhemp plant response rating ([8]; 62 g ai/ha): 100
- Plant response rating, Waterhemp ([8]; 125 g ai/ha): 100
- Plant response rating, Waterhemp ([8]; 250 g ai/ha): 100
- Plant response rating, Barnyardgrass ([9]; 62 g ai/ha): 0
- Plant response rating, Barnyardgrass ([9]; 125 g ai/ha): 10
- Nutsedge, Yellow plant response rating ([10]; 16 g ai/ha): 0
- Nutsedge, Yellow plant response rating ([10]; 31 g ai/ha): 0
- Nutsedge, Yellow plant response rating ([10]; 62 g ai/ha): 0
- Plant response rating, Nutsedge, Yellow ([10]; 125 g ai/ha): 25
- Plant response rating, Nutsedge, Yellow ([10]; 250 g ai/ha): 50
- Sandbur plant response rating ([11]; 16 g ai/ha): 25
- Sandbur plant response rating ([11]; 31 g ai/ha): 40
- Sandbur plant response rating ([11]; 62 g ai/ha): 30
- Plant response rating, Sandbur ([11]; 125 g ai/ha): 35
- Plant response rating, Sandbur ([11]; 250 g ai/ha): 50
